Results taken from patent US20070196514A1, “Prostate cancer treatment with glycogen synthase kinase-3beta inhibitors” (priority 2006, published 2007).

Experiments:
LNCaP cells [1] = experiment: Western blot of cell cycle-related proteins; format: cell-based, human; conditions: BIO at different doses for 24 hours
Description: Western blot was carried out as described previously (Liao 2004, Liao 2003, and Liao 2005). Briefly, cells were pellets and lysed in radio-immunoprecipitation assay (“RIPA”) buffer containing protease inhibitors (Half™ Protease Inhibitor Cocktail Kit, PIERCE, Rockford, Ill.). Proteins were separated on SDS-PAGE gels and transferred to Immuno-Blot™ PVDF membrane (BIO-RAD, Hercules, Calif.). Membranes were blocked in a tris-buffered solution plus Tween 20 (“TBST”) solution with 5% nonfat dry milk and incubated with primary antibodies overnight at 4° C. Immunoreactive signals were detected by horseradish peroxidase-conjugated secondary antibodies (Santa Cruz Biotech., Santa Cruz, Calif.) followed by SuperSingnal® WestFeml® Maximum Sensitivity Substrate (PIERCE).
To verify those alterations at a protein level, two series experiments were conducted using Western blot technique. The first involved a time-course experiment. After serum starvation, LNCaP cells were left untreated or treated as before with LiCl for up to 24 hours. Cells were harvested at 18-24 hours.
Next, a dose-response experiment was performed. Following serum starvation for 24 hours, LNCaP cells were treated with BIO at different doses for another 24 hours. Control cells received the vehicle as treatment.

LNCaP cells [2] = experiment: MTT cell growth assay; format: cell-based, human; conditions: three days; for cell growth (MTT): increasing doses in full culture medium, dose-responsive; for cell growth inhibition (MTT): equimolecular concentrations of LiCl, NaCl, KCl
Description: (§1) For MTT-based cell growth assays, cells seeded in 96-well plates were serum-starved for 48 hours, and were then treated with vehicle or different reagents for different time periods as indicated in the figures. MTT assay were carried out using a pre-assembled kit (Sigma) according to the manufacturer's manual.
(§2) To rule out the eventual intervention of the chloride anion and the osmotic disturbance, the effect of LiCl was compared with sodium chloride (“NaCl”) and potassium chloride (“KCl”) at equimolecular concentrations in both LNCaP and PC-3 cell lines. In addition, the androgen-insensitive C4-2 cell line was included. To easily handle the experiments while multiple comparisons were taken in place, a MTT assay was used to assess cell growth.
Lastly, two GSK-3β-specific small chemical inhibitors, SB216763 and BIO, were used to verify that LiCl-induced suppression of cell growth is due to GSK-3β inhibition. LNCaP cells were seeded as above and then treated with increasing doses of the inhibitors in a full culture medium. Cell growth was assessed three days later by MTT assay.

C4-2 cells [3] = experiment: MTT cell growth assay; format: cell-based, human; conditions: equimolecular concentrations of LiCl, NaCl, KCl, three days
Description: as §1, §2

PC-3 cells [4] = experiment: MTT cell growth assay; format: cell-based, human; conditions: equimolecular concentrations of LiCl, NaCl, KCl, three days
Description: as §1, §2

LNCaP-BclxL xenografts = experiment: LNCaP-BclxL xenograft model; format: in vivo, castrated nude mice
Description: All animal studies were conducted under an approved Institutional Animal Care and Use Committee protocol. Single cell suspensions (2×10^6 cells in 0.1 ml of RPMI1640 medium plus 10% FBS) were inoculated subcutaneously (s.c.) into the rear flanks (two sites/mouse) of 6 to 7 weeks old male nude mice (Charles River, Wilmington, Mass.). For protocol A, mice were randomly divided into two groups (5 animals each). On next day after inoculation, one group of animals received i.p. injection of LiCl at a daily dose of 2 mg/kg body weight. LiCl was dissolved in PBS. The control groups of animals received PBS alone in the same volume. Xenograft development and growth were monitored for 8 weeks. The tumor dimensions were measured twice a week. The tumor volume was calculated by the formula of L×W×H×0.5236 (Miyake 2001). At the end of treatment, xenograft tumors were extirpated, and the final tumor size and weight, as well as animal weight were measured. For protocol B, treatment began until tumor became palpable or 50 mm^3 in size, and LiCl or PBS was injected (5 animals each group) as above for a two-week course. Tumor size and weight were measured at the end of treatment. For BrdU in vivo labeling, the animals were injected i.p. with 0.5 ml of a 10-mM BrdU solution (Invitrogen) 2 hours before sacrifice. For experiments involving LNCaP-BclxL SB216763 subline cells (Liao 2005) were inoculated as above, and SB216763 treatment was started two weeks later when palpable xenografts were established. The SB216763 for animal use was purchased from Biomol (Plymouth Meeting, Pa.) and dissolved in a formula containing 50% N,N-dimethylacetamide (“DMA”), 45% polyethylene glycol 400 (“PEG-400”) and 5% Tween-80. SB216763 (2 mg/kilogram/bodyweight) or the solvent in 20 μl volume was injected i.p. three times a week. Tumor growth was monitored as discussed herein. […]

AR-null PC-3 cells = conditions: Mazor 2004; cited from earlier work
C4-2 cells [5] = experiment: cell cycle analysis by flow cytometry (PI); format: cell-based, human; conditions: 12 hours treatment
Description: (§3) For cell cycle analysis, serum-starved cells were left untreated or treated with different inhibitors for various time periods as indicated in the figures. After trypsinization, the cells were fixed and stained with propidium iodide (“PI”). Cell cycle distribution of PI-labeled cells was analyzed on a fluorescence activated cell sorter (Model EPICS XL-MCL, Beckman-Coulter Co., Fullerton, Calif.) as described previously (Miyake 2001).
(§4) The effect of GSK-3β SB216763 on cell cycle distribution in AR-null PC-3 and androgen-insensitive C4-2 cell lines were also examined.

PC-3 cells [6] = experiment: cell cycle analysis by flow cytometry (PI); format: cell-based, human; conditions: 12 hours treatment
Description: as §3, §4

[7] = estimated serum lithium level in mice; format: in vivo; conditions: about 2 mg/kg of body weight, estimated (Moore 2002)
Excerpt: Based on these preliminary results, therapeutically effective dosage levels include those substantially below those used for treatment of bipolar disorders with lithium in humans, which are reported to result in a serum level between about 0.2 and 1.5 mEq/L (Noble 2005), and is usually over 0.8 mEq/L.

[8] = humans; cited from earlier work

## O=C1Nc2cc(Br)ccc2/C1=C1/Nc2ccccc2/C1=N\O [BIO, 6-bromoindirubin-3′-oxime]
LNCaP cells [1]
  p21CIP1 protein expression (Western blot): increased dramatically
LNCaP cells [1]; dose-dependent
  protein levels of cyclins A and E, cdc6 and cdc25C (Western blot): significantly reduced
LNCaP cells [2]
  cell growth (MTT): significantly suppressed

## [Cl-].[K+] [KCl, potassium chloride]
C4-2 cells [3]
  cell growth inhibition (MTT): did not cause any significant inhibition
PC-3 cells [4]
  cell growth inhibition (MTT): did not cause any significant inhibition
LNCaP cells [2]
  cell growth inhibition (MTT): did not cause any significant inhibition

## [Cl-].[Na+] [NaCl, sodium chloride]
C4-2 cells [3]
  cell growth inhibition (MTT): did not cause any significant inhibition
PC-3 cells [4]
  cell growth inhibition (MTT): did not cause any significant inhibition
LNCaP cells [2]
  cell growth inhibition (MTT): did not cause any significant inhibition

## Cn1cc(C2=C(c3ccc(Cl)cc3Cl)C(=O)NC2=O)c2ccccc21 [SB216763, 3-(2,4-Dichlorophenyl)-4-(1-methyl-1H-indol-3yl)-1H-pyrrole-2,5-dione]
LNCaP-BclxL xenografts; SB216763 2 mg/kg i.p.
  side effects: No side effects
LNCaP-BclxL xenografts; SB216763 2 mg/kg i.p. every two days, palpable tumors
  tumor growth vs control animals: largely suppressed
LNCaP-BclxL xenografts; SB216763 2 mg/kg i.p. vs vehicle
  treatment duration after which difference in tumor volume became significant: 5 week
AR-null PC-3 cells
  growth of AR-null PC-3 cells: did not affect growth
C4-2 cells [5]
  cell cycle distribution (S-phase arrest): arrested these cells in S-phase
PC-3 cells [6]
  cell cycle distribution (S-phase arrest): arrested these cells in S-phase
LNCaP cells [2]
  cell growth (MTT): significantly suppressed

## [Li] [lithium]
[7]
  serum level: about 0.02 mEq/L
[8]
  usual serum level at dosages used for treatment of bipolar disorders: over 0.8 mEq/L
